In ChEMBL document CHEMBL4346695, “Thiophenol-formaldehyde triazole causes apoptosis induction in ovary cancer cells and prevents tumor growth formation in mice model” (2019):
Active and inactive are the calls of the source. No cut-off for these calls is given here.

Key:
[1] = tested on: Caov-3 cell line; test: Antimetastasis activity against human Caov3 cells xenografted in BALB/c nude mouse assessed as reduction in infiltration of macrophages in peritoneal lesions at 10 mg/kg, ip incubated for 1 hr post tumor implantation and measured after 20 days by DAB and hematoxylin staining based immunohistochemical analysis relative to control; format: functional; design: scale not given: the % may be the effect or the level left
[2] = tested on: Caov-3 cell line; test: Induction of Cell cycle arrest in human Caov3 cells assessed as accumulation at G2/M phase at 1.5 uM incubated for 48 hrs by propidium iodide staining based flow cytometric analysis (reference value: 22.68%); format: functional
[3] = tested on: Caov-3 cell line; test: Induction of Cell cycle arrest in human Caov3 cells assessed as accumulation at G0/G1 phase at 1 uM incubated for 48 hrs by propidium iodide staining based flow cytometric analysis (reference value: 57.77%); format: functional
[4] = tested on: Caov-3 cell line; test: Induction of apoptosis in human Caov3 cells assessed as formation of apoptotic nuclei at 1.0 uM incubated for 48 hrs by Hoechst 33342 staining based fluorescent microscopic method relative to control; format: functional
[5] = tested on: Caov-3 cell line; test: Antiinvasive activity in human Caov3 cells at 0.5 uM incubated for 48 hrs using hematoxylin by microscopy-based transwell assay relative to control; format: functional
[6] = tested on: Caov-3 cell line; test: Antiinvasive activity in human Caov3 cells at 1.0 uM incubated for 48 hrs using hematoxylin by microscopy-based transwell assay relative to control; format: functional
[7] = tested on: Caov-4; test: Growth inhibition of human Caov4 cells at 2 uM incubated for 48 hrs by MTT assay relative to control; format: functional; details: Caov-4, 48 h, read-out: GI
[8] = tested on: Caov-3 cell line; test: Inhibition of cell migration in human Caov3 cells assessed as decrease in migration potential at 0.5 to 2.0 uM incubated for 48 hrs by wound healing assay (reference value: 89.65%); format: functional
[9] = tested on: Caov-3 cell line; test: Antimetastasis activity against human Caov3 cells xenografted in BALB/c nude mouse assessed as reduction in vWF expression in peritoneal lesions at 10 mg/kg, ip incubated for 1 hr post tumor implantation and measured after 20 days by DAB and hematoxylin staining based immunohistochemical analysis relative to control; format: functional; design: scale not given: the % may be the effect or the level left
[10] = tested on: Caov-3 cell line; test: Induction of apoptosis in human Caov3 cells at 0.25 to 2.0 uM incubated for 48 hrs by Hoechst 33342 staining based fluorescent microscopic method; format: functional, cell-based
[11] = species: Homo sapiens; test: Growth inhibition of human ES2 cells at 0.25 uM incubated for 48 hrs by MTT assay; format: functional
[12] = tested on: Caov-3 cell line; test: Antimetastasis activity against human Caov3 cells xenografted in BALB/c nude mouse assessed as reduction in vWF expression in liver lesions at 5 mg/kg, ip incubated for 1 hr post tumor implantation and measured after 20 days by DAB and hematoxylin staining based immunohistochemical analysis; format: functional, organism-based
[13] = tested on: Caov-4; test: Growth inhibition of human Caov4 cells at 0.25 uM incubated for 48 hrs by MTT assay; format: functional, cell-based
[14] = tested on: Caov-3 cell line; test: Antimetastasis activity against human Caov3 cells xenografted in BALB/c nude mouse assessed as reduction of metastasis in peritoneal cavity at 10 mg/kg, ip incubated for 1 hr post tumor implantation and measured after 20 days by H and E staining-based assay; format: functional, organism-based
[15] = tested on: Caov-3 cell line; test: Induction of Cell cycle arrest in human Caov3 cells assessed as accumulation at G0/G1 phase at 2 uM incubated for 48 hrs by propidium iodide staining based flow cytometric analysis (reference value: 57.77%); format: functional
[16] = tested on: Caov-3 cell line; test: Antimetastasis activity against human Caov3 cells xenografted in BALB/c nude mouse assessed as reduction in vWF expression in peritoneal lesions at 5 mg/kg, ip incubated for 1 hr post tumor implantation and measured after 20 days by DAB and hematoxylin staining based immunohistochemical analysis; format: functional, organism-based
[17] = tested on: Caov-3 cell line; test: Antimetastasis activity against human Caov3 cells xenografted in BALB/c nude mouse assessed as reduction in infiltration of macrophages in intestinal lesions at 5 mg/kg, ip incubated for 1 hr post tumor implantation and measured after 20 days by DAB and hematoxylin staining based immunohistochemical analysis; format: functional, organism-based
[18] = tested on: Caov-3 cell line; test: Antimetastasis activity against human Caov3 cells xenografted in BALB/c nude mouse assessed as reduction of metastasis in liver at 10 mg/kg, ip incubated for 1 hr post tumor implantation and measured after 20 days by H and E staining-based assay; format: functional, organism-based
[19] = tested on: Caov-3 cell line; test: Inhibition of metastasis in human Caov3 cells assessed as decrease in MMP2 expression level at 0.25 uM incubated for 48 hrs by Western blot analysis; format: functional, cell-based
[20] = tested on: Caov-3 cell line; test: Antiinvasive activity in human Caov3 cells at 1.5 uM incubated for 48 hrs using hematoxylin by microscopy-based transwell assay relative to control; format: functional
[21] = tested on: Caov-3 cell line; test: Induction of Cell cycle arrest in human Caov3 cells assessed as accumulation at S phase at 2 uM incubated for 48 hrs by propidium iodide staining based flow cytometric analysis (reference value: 18.89%); format: functional
[22] = tested on: Caov-3 cell line; test: Antimetastasis activity against human Caov3 cells xenografted in BALB/c nude mouse assessed as reduction in vWF expression in liver lesions at 10 mg/kg, ip incubated for 1 hr post tumor implantation and measured after 20 days by DAB and hematoxylin staining based immunohistochemical analysis relative to control; format: functional; design: scale not given: the % may be the effect or the level left
[23] = tested on: Caov-3 cell line; test: Induction of Cell cycle arrest in human Caov3 cells assessed as accumulation at G2/M phase at 1 uM incubated for 48 hrs by propidium iodide staining based flow cytometric analysis (reference value: 22.68%); format: functional
[24] = Growth inhibition of human ES2 cells at 2 uM incubated for 48 hrs by MTT assay relative to control; format: functional; details: ES-2, 48 h, read-out: GI
[25] = tested on: Caov-3 cell line; test: Antimetastasis activity against human Caov3 cells xenografted in BALB/c nude mouse assessed as reduction of metastasis in spleen at 10 mg/kg, ip incubated for 1 hr post tumor implantation and measured after 20 days by H and E staining-based assay; format: functional, organism-based
[26] = tested on: Caov-3 cell line; test: Induction of apoptosis in human Caov3 cells assessed as formation of apoptotic nuclei at 2.0 uM incubated for 48 hrs by Hoechst 33342 staining based fluorescent microscopic method relative to control; format: functional
[27] = tested on: Caov-3 cell line; test: Antimetastasis activity against human Caov3 cells xenografted in BALB/c nude mouse assessed as reduction in vWF expression in intestinal lesions at 10 mg/kg, ip incubated for 1 hr post tumor implantation and measured after 20 days by DAB and hematoxylin staining based immunohistochemical analysis relative to control; format: functional; design: scale not given: the % may be the effect or the level left
[28] = tested on: Caov-3 cell line; test: Induction of apoptosis in human Caov3 cells assessed as formation of apoptotic nuclei at 0.5 uM incubated for 48 hrs by Hoechst 33342 staining based fluorescent microscopic method relative to control; format: functional
[29] = tested on: Caov-3 cell line; test: Antiinvasive activity in human Caov3 cells at 2.0 uM incubated for 48 hrs using hematoxylin by microscopy-based transwell assay relative to control; format: functional
[30] = tested on: Caov-3 cell line; test: Induction of Cell cycle arrest in human Caov3 cells assessed as accumulation at G2/M phase at 2 uM incubated for 48 hrs by propidium iodide staining based flow cytometric analysis (reference value: 22.68%); format: functional
[31] = species: Homo sapiens; test: Growth inhibition of human ES2 cells at 0.5 uM incubated for 48 hrs by MTT assay; format: functional
[32] = tested on: Caov-3 cell line; test: Antimetastasis activity against human Caov3 cells xenografted in BALB/c nude mouse assessed as reduction in infiltration of macrophages in intestinal lesions at 10 mg/kg, ip incubated for 1 hr post tumor implantation and measured after 20 days by DAB and hematoxylin staining based immunohistochemical analysis relative to control; format: functional; design: scale not given: the % may be the effect or the level left
[33] = tested on: Caov-3 cell line; test: Inhibition of metastasis in human Caov3 cells assessed as decrease in MMP2 expression level at 0.5 uM incubated for 48 hrs by Western blot analysis; format: functional, cell-based

Fc1ccccc1-n1cc(COCc2ccccc2S)nn1
Activity [1]: 5%
Activity [2]: 20.07%
Activity [3]: 61.63%
Activity [4]: 21.54%
Activity [5]: 84.54%
Activity [6]: 67.76%
inhibition of growth at 2 µM [7]: 26%
inhibition (INH) [8]: 6.43%
Activity [9]: 5%
Activity [10]: Active
growth inhibition (GI) [11]: inactive
Activity [12]: inactive
growth inhibition (GI) [13]: inactive
Activity [14]: Active
Activity [15]: 69.54%
Activity [16]: inactive
Activity [17]: inactive
Activity [18]: Active
inhibition [19]: inactive
Activity [20]: 39.14%
Activity [21]: 11.48%
Activity [22]: 7%
Activity [23]: 21.19%
inhibition of growth at 2 µM [24]: 29%
Activity [25]: Active
Activity [26]: 62.53%
Activity [27]: 6%
Activity [28]: 8.67%
Activity [29]: 8.62%
Activity [30]: 18.08%
growth inhibition (GI) [31]: Active
Activity [32]: 7%
inhibition [33]: Active
